Measurements as given in US8552220B2, “Therapeutic agent for Alzheimer's disease” (Tokyo Institute of Technology, priority 2008, dated 2013).

Key:
[1] = test system: Aβ-40 and Aβ-42 production; assay: Inhibitory effect on Aβ-40 and Aβ-42 production in rat primary cultured cell (Aβ ELISA of culture medium); format: cell-based; details: 72 hr, rat cerebral cortex primary culture
Method: Cerebral cortex was obtained from 19-20 day-old embryonic Wistar rat. The tissue was minced, dissociated using scalpel blades and Pasteur pipette in Hunks buffered solution, and centrifuged at 100 rpm. Precipitated cells were filtered using […] cell strainer, and single cells were prepared. These cells were suspended in Eagle's Minimum Essential Medium (EMEM) containing 10% Fetal bovine serum, and plated into 48-well tissue culture plates (Becton Dickinson) at 200 μL/well and 1.7×10^5 cells/cm^2. Cultures were incubated at 37° C. in a humidified atmosphere of 5% CO2. After 3, 5, and 7 days in culture, the medium was replaced, and after 9 days, CU532 was dissolved in DMSO and diluted in culture media so that the final concentration of DMSO in culture media was 0.1%, and each solution was added to each well at […] for 72 hr. The control solution contained 0.1% DMSO.
After 72 hr, Aβ-40 and Aβ-42 in culture media were measured using by Aβ ELISA kit (Wako). 100 μL of the culture medium and standard diluents were added to the antibody-coated plate, and incubated at 4° C. over night. Then the plate was washed by wash buffer 5 times and 100 μL of HRP-labeled detection antibody solution was added to the plate. After 1 hour, the plate was washed 5 times, and TMB chromogenic reagent was added to the plate. After 30 minute, stop solution was added and absorbance at 450 nm of the solution was measured by microplate reader (BIORAD). The concentration of Aβ in culture medium was calculated from the standard curve.

[2] = target: T1, recombinant human β-secretase (rhBACE-1) (Homo sapiens, UniProt P56817); assay: Measurement of 50% inhibition concentration (IC50) of β-secretase (BACE-1) enzyme, fluorescent substrate peptide; format: biochemical; details: rhBACE-1, pH 4.5, 37° C., 2.5 hr
T1 construct: purchased Invitrogen
T1 sequence (P56817 46-501): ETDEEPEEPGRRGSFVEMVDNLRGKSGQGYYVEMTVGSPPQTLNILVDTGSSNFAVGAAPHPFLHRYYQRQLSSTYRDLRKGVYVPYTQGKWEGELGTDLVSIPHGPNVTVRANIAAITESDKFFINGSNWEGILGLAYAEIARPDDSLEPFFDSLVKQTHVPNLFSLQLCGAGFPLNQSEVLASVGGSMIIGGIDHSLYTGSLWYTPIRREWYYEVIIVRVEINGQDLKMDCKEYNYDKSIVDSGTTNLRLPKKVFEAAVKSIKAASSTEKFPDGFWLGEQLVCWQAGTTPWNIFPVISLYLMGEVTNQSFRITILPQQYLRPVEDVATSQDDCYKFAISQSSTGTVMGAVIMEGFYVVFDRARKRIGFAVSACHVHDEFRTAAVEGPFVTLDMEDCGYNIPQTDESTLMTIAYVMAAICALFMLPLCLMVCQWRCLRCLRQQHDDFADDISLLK
Method: Compounds were dissolved in 0.1 M sodium acetate buffer (with 150 mM sodium chloride, pH 4.5) and 10% dimethylsulfoxide (DMSO). The solution with no compound was used as a negative control. Then, 15 μL of these solutions (final compound concentration: 0.3, 0.9, 3.0, 9.0, and 30.0 μM), 1 unit/mL of recombinant human β-secretase (rhBACE-1, Invitrogen), and 15 μL of the fluorescent substrate peptide were mixed in a black 384-well microtiter plate (Coaster). After mixtures were incubated in the dark at 37° C. for 2.5 hr, the fluorescence intensities of the mixtures were measured by fluorescence microplate reader (Wallac) at 545 nm for excitation and at 590 nm for emission. The inhibition ratio of each compound was calculated using the intensity of the solution without any compound as a negative control. The sequence of the peptide was Ser-Glu-Val-Asn-Leu-Asp-Ala-Glu-Lys-Arg, and labeled with fluorescent donor (Cy3) at Ser-1 and with quencher (Cy5Q) at Lys-9, respectively (Invitrogen) Inhibitory activities of each compound are shown in FIG. 1.

melting point	IC50 [2]	Structure (SMILES)	also measured
182 to 186 °C		O=C(/C=C/c1ccc(O)cc1)CC(=O)/C=C/c1cc(O)ccc1Br [CU532, (1E,6E)-1-(2-bromo-5-hydroxyphenyl)-7-(4-hydroxyphenyl)hepta-1,6-diene-3,5-dione]	amount of Aβ-42 in culture medium ([1]; at 0.3 μM): significantly decreased; amount of Aβ-40 in culture medium ([1]; at 1 μM): significantly decreased
168 to 172 °C	0.74 µM	O=C(/C=C/c1ccc(O)cc1)CC(=O)/C=C/c1cc(OCc2ccccc2)ccc1[N+](=O)[O-] [CU475, (1E,6E)-1-(5-benzyloxy-2-nitrophenyl)-7-(4-hydroxyphenyl)hepta-1,6-diene-3,5-dione]	
151 to 155 °C	1.2 µM	COc1ccc([N+](=O)[O-])c(/C=C/C(=O)CC(=O)/C=C/c2ccc(O)cc2)c1 [CU481, (1E,6E)-1-(4-hydroxyphenyl)-7-(5-methoxy-2-nitrophenyl)hepta-1,6-diene-3,5-dione]	
186 to 192 °C	7.3 µM	Nc1ccc(O)cc1/C=C/C(=O)CC(=O)/C=C/c1ccc(O)cc1 [CU488, (1E,6E)-1-(2-amino-5-hydroxyphenyl)-7-(4-hydroxyphenyl)hepta-1,6-diene-3,5-dione]	
		COc1cc(/C=C/C(=O)CC(=O)/C=C/c2ccc(O)c(OC)c2)ccc1O [curcumin, reference compound]	inhibitory effect on Aβ production [1]: no inhibitory effect
175 to 179 °C	5.6 µM	Nc1ccc(OCc2ccccc2)cc1/C=C/C(=O)CC(=O)/C=C/c1ccc(O)cc1 [CU489, (1E,6E)-1-(2-amino-5-benzyloxyphenyl)-7-(4-hydroxyphenyl)hepta-1,6-diene-3,5-dione]	
187 to 194 °C	0.91 µM	O=C(/C=C/c1ccc(O)cc1)CC(=O)/C=C/c1cc(O)ccc1[N+](=O)[O-] [CU131, (1E,6E)-1-(5-hydroxy-2-nitrophenyl)-7-(4-hydroxyphenyl)hepta-1,6-diene-3,5-dione]	
190 to 192 °C	16 µM	COc1cc(/C=C/C(=O)CC(=O)/C=C/c2ccc(O)cc2)ccc1[N+](=O)[O-] [CU050, (1E,6E)-1-(4-hydroxyphenyl)-7-(3-methoxy-4-nitrophenyl)hepta-1,6-diene-3,5-dione]	
175 to 180 °C		COc1cc(O)ccc1/C=C/C(=O)CC(=O)/C=C/c1cc(OCc2ccccc2)ccc1-c1ccccc1 [CU559, (1E,6E)-1-(4-benzyloxybiphenyl-2-yl)-7-(4-hydroxy-2-methoxyphenyl)hepta-1,6-diene-3,5-dione]	
231 to 237 °C		CCOC(=O)c1cn(-c2ccccc2/C=C/C(=O)CC(=O)/C=C/c2ccc(O)cc2)nn1 [CU625, (1E,6E)-1-[2-(4-ethoxycarbonyl-1H-1,2,3-triazol-1-yl)phenyl]-7-(4-hydroxyphenyl)hepta-1,6-diene-3,5-dione]	
212 to 215 °C		CCN(CC)c1ccc(/C=C/C(=O)CC(=O)/C=C/c2ccc(O)cc2)c(OC(=O)c2ccccc2)c1 [CU425, (1E,6E)-1-(2-benzoyloxy-4-diethylaminophenyl)-7-(4-hydroxyphenyl)hepta-1,6-diene-3,5-dione]	
195 to 204 °C		O=C(/C=C/c1ccc(O)cc1)CC(=O)/C=C/c1ccc(N2CCN(c3ccccc3)CC2)cc1Br [CU1095, (1E,6E)-1-[2-bromo-4-(4-phenylpiperazin-1-yl)phenyl]-7-(4-hydroxyphenyl)hepta-1,6-diene-3,5-dione]	
206 to 211 °C		COc1cc(O)ccc1/C=C/C(=O)CC(=O)/C=C/c1ccc(O)cc1Cl [CU600, (1E,6E)-1-(2-chloro-4-hydroxyphenyl)-7-(4-hydroxy-2-methoxyphenyl)hepta-1,6-diene-3,5-dione]	
185 to 191 °C		O=C(/C=C/c1ccc2cc[nH]c2c1)CC(=O)/C=C/c1cc(O)ccc1-c1ccccc1 [CU604, (1E,6E)-1-(4-hydroxybiphenyl-2-yl)-7-(1H-indol-6-yl)hepta-1,6-diene-3,5-dione]	
158 to 161 °C		O=C(/C=C/c1ccc(O)cc1)CC(=O)/C=C/c1ccccc1Cl [CU624, (1E,6E)-1-(2-chlorophenyl)-7-(4-hydroxyphenyl)hepta-1,6-diene-3,5-dione]	
132 to 136 °C		O=C(/C=C/c1ccc(O)cc1Cl)CC(=O)/C=C/c1cc(O)ccc1[N+](=O)[O-] [CU611, (1E,6E)-1-(2-chloro-4-hydroxyphenyl)-7-(5-hydroxy-2-nitrophenyl)hepta-1,6-diene-3,5-dione]	
